The values that follow come from US6399629B1, “Efflux pump inhibitors” (priority 1998, dated 2002).

This experiment relates to Pseudomonas aeruginosa PAM1001. The experiment can be described thus: checkerboard assay (broth microdilution): levofloxacin MIC in presence of efflux pump inhibitor. It is filed as cell-based. On the procedure: For compounds labeled with the prefix ‘M’, potentiation effect is observed by the reduction of the minimum inhibitory concentration of levofloxacin in the presence of the experimental efflux pump inhibitor. The activity of efflux pump inhibitors (EPI) in combination with fluoroquinolones, such as levofloxacin, is assessed by the checkerboard assay (Antimicrobial Combinations. In Antibiotics in Laboratory Medicine, Ed. Victor Lorian, M.D., Fourth edition, 1996, pp 333-338) using broth microdilution method performed as recommended by the National Committee for Clinical Laboratory Standards (1997). Methods for Dilution of Antimicrobial Susceptibility Tests for Bacteria That Grow Aerobically—Fourth Edition; Approved Standard. NCCLS Document M7-A4, Vol 17 No.2). The test organism used is Pseudomonas aeruginosa PAM1001. […] The compounds tabulated below are representative of the described invention.
In these assays, multiple dilutions of two drugs, namely the EPI and levofloxacin, are being tested, alone and in combination, at concentrations equal to, above and below their respective minimal inhibitory concentrations (MICs). In the case of EPI, most of these compounds are devoid of intrinsic antimicrobial activity and are tested up to the maximum concentration of 40 μg/mL. The MIC of levofloxacin against P. aeruginosa PAM1001 is 4 μg/mL.
The EPI tested are readily soluble in water and stock solutions are prepared at a final concentration of 2 mg/mL. Stock solutions are further diluted, according to the needs of a particular assay, in Mueller Hinton Broth (MHB). Stock solution can be stored at −80° C. Quinolones are solubilized according to the instructions of the manufacturers, at a concentration of 1 mg/mL. They are then further diluted in MHB. Stock solution can be stored at −80° C.
The checkerboard assay is performed in microtiter plates. Levofloxacin is diluted in the x axis, each column containing a single concentration of levofloxacin. The EPI is diluted in the y axis, each row containing an equal concentration of EPI. The result of these manipulations is that each well of the microtiter plate contains a unique combination of concentrations of the two agents. Each EPI are tested independently.
The assay is performed in MHB with a final bacterial inoculum of 5×10^5 CFU/mL (from an early-log phase culture). Microtiter plates are incubated during 20 h at 35° C. and are read using a microtiter plate reader (Molecular Devices) at 650 nm as well as visual observation using a microtiterplate reading mirror.
(In general: Broth dilution looks for growth in wells or tubes with falling amounts of substance.)

In the case of `Cc1cc2nc(C(O)[C@@H](CCc3ccccc3)NC(=O)[C@@H]3C[C@@H](NC(=O)CN)CN3)oc2cc1C` (mixture of isomers) [Compound M64, (2S,4R)-4-(2-Aminoacetamido)-N-[(1R)-1-[(RS)-(5,6-dimethyl-2-benzoxazoly)hydroxymethyl]-3-pheylpropyl]-2-pyrrolidinecarboxamide], the “Levofloxacin MIC Against P. aerugiuosa PAM1001 in Presence of Efflux Pump Inhibitor (EPI), Minimum Inhibitory Concentration” value came to 4 µg/mL (EPI Conc. 0 μg/mL); 4 µg/mL (EPI Conc. 0.625 μg/mL); 4 µg/mL (EPI Conc. 1.25 μg/mL); 4 µg/mL (EPI Conc. 2.5 μg/mL); 4 µg/mL (EPI Conc. 5 μg/ mL); 4 µg/mL (EPI Conc. 10 μg/mL). Also, the “Levofloxacin MIC Against P. aerugiuosa PAM1001 in Presence of Efflux Pump Inhibitor (EPI), Minimum Inhibitory Concentration” value is, setting by setting: (EPI Conc. 20 μg/mL) 4 µg/mL; (EPI Conc. 40 μg/mL) 0.015 µg/mL.

`Cc1cc2nc(C(O)[C@@H](CCc3ccccc3)NC(=O)[C@@H]3C[C@@H](NC(=O)[C@@H](C)N)CN3)oc2cc1C` (mixture of isomers) [Compound M65, (2S,4R)-4-[(2R)-2-Aminopropionamido]-N-[(1R)-1-[(RS)-(5,6-dimethyl-2-benzoxaaolyl)hydroxymethyl]-3-phenylpropyl]-2-pyrrolidinecarboxamide]: the “Levofloxacin MIC Against P. aerugiuosa PAM1001 in Presence of Efflux Pump Inhibitor (EPI), Minimum Inhibitory Concentration” value was 4 µg/mL (EPI Conc. 0 μg/mL); 4 µg/mL (EPI Conc. 0.625 μg/mL); 4 µg/mL (EPI Conc. 1.25 μg/mL); 4 µg/mL (EPI Conc. 2.5 μg/mL); 4 µg/mL (EPI Conc. 5 μg/ mL); 4 µg/mL (EPI Conc. 10 μg/mL). The “Levofloxacin MIC Against P. aerugiuosa PAM1001 in Presence of Efflux Pump Inhibitor (EPI), Minimum Inhibitory Concentration” value amounted to 0.06 µg/mL (EPI Conc. 20 μg/mL) and 0.015 µg/mL (EPI Conc. 40 μg/mL).

As to `Cc1cc2nc(C(O)[C@@H](CCc3ccccc3)NC(=O)[C@H]3C[C@H](NC(=O)[C@@H](C)N)CN3)oc2cc1C` (mixture of isomers) [Compound M66, (2R,4S)-4-[(2R)-2-Aminopropionamido]-N-[(1R)-1-[(RS)-(5,6-dimethyl-2-benzoxaaolyl)hydroxymethyl]-3-phenylpropyl]-2-pyrrolidinecarboxamide], the “Levofloxacin MIC Against P. aerugiuosa PAM1001 in Presence of Efflux Pump Inhibitor (EPI), Minimum Inhibitory Concentration” value (EPI Conc. 0 μg/mL) was 4 µg/mL; the “Levofloxacin MIC Against P. aerugiuosa PAM1001 in Presence of Efflux Pump Inhibitor (EPI), Minimum Inhibitory Concentration” value (EPI Conc. 0.625 μg/mL) turned out to be 4 µg/mL; the “Levofloxacin MIC Against P. aerugiuosa PAM1001 in Presence of Efflux Pump Inhibitor (EPI), Minimum Inhibitory Concentration” value (EPI Conc. 1.25 μg/mL) amounted to 4 µg/mL; the “Levofloxacin MIC Against P. aerugiuosa PAM1001 in Presence of Efflux Pump Inhibitor (EPI), Minimum Inhibitory Concentration” value (EPI Conc. 2.5 μg/mL) is 4 µg/mL; the “Levofloxacin MIC Against P. aerugiuosa PAM1001 in Presence of Efflux Pump Inhibitor (EPI), Minimum Inhibitory Concentration” value (EPI Conc. 5 μg/ mL) is 4 µg/mL; the “Levofloxacin MIC Against P. aerugiuosa PAM1001 in Presence of Efflux Pump Inhibitor (EPI), Minimum Inhibitory Concentration” value (EPI Conc. 10 μg/mL) came out at 0.125 µg/mL. For the same compound, the “Levofloxacin MIC Against P. aerugiuosa PAM1001 in Presence of Efflux Pump Inhibitor (EPI), Minimum Inhibitory Concentration” value is 0.015 µg/mL (EPI Conc. 20 μg/mL) and 0.015 µg/mL (EPI Conc. 40 μg/mL).

On to `CC(C)(C)c1ccc2oc(C(O)[C@@H](CCc3ccccc3)NC(=O)[C@H]3C[C@H](CN)CN3)nc2c1` (mixture of isomers) [Compound M68], for which the “Levofloxacin MIC Against P. aerugiuosa PAM1001 in Presence of Efflux Pump Inhibitor (EPI), Minimum Inhibitory Concentration” value is, setting by setting: (EPI Conc. 0 μg/mL) 4 µg/mL; (EPI Conc. 0.625 μg/mL) 4 µg/mL; (EPI Conc. 1.25 μg/mL) 4 µg/mL; (EPI Conc. 2.5 μg/mL) 4 µg/mL; (EPI Conc. 5 μg/ mL) 4 µg/mL; (EPI Conc. 10 μg/mL) 4 µg/mL. The “Levofloxacin MIC Against P. aerugiuosa PAM1001 in Presence of Efflux Pump Inhibitor (EPI), Minimum Inhibitory Concentration” value was determined as 0.5 µg/mL (EPI Conc. 20 μg/mL) and 0.015 µg/mL (EPI Conc. 40 μg/mL).
